Results from patent US10221175B2, “Substituted pyrrolo[3,4-e]indolizines, imidazo[1,2-a]pyrrolo[3,4-e]pyridines, pyrrolo[3,4-e][1,2,4]triazolo[1,5-a]pyridines and pyrrolo[3,4-e][1,2,4]triazolo[4,3-a]pyridines as positive allosteric modulators of muscarinic acetylcholine receptor M1” (Vanderbilt University, priority 2015, dated 2019).

Molecular target: T1, mAChR M1 (UniProt P11229)
T1 sequence (P11229 1-460): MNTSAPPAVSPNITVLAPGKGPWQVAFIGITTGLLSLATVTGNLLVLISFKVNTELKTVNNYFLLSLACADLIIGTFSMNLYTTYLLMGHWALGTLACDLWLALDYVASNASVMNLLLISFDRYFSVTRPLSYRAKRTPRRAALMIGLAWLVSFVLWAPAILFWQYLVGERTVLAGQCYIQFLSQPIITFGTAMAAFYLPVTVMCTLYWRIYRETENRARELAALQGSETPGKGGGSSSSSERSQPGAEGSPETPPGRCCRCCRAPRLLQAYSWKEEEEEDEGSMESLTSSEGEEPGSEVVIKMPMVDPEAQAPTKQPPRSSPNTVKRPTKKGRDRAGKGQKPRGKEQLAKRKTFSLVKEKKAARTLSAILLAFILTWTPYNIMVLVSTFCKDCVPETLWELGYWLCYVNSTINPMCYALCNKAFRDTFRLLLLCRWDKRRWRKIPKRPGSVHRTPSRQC
Test: mAChR M1 cell-based functional assay (calcium mobilization, potentiation of EC20 acetylcholine response)
Conditions: maximal response as % of ACh maximum, CHO-K1 cells expressing M1
Source text: Chinese hamster ovary (CHO-K1) cells stably expressing rat (r)M1 were purchased from the American Type Culture Collection and cultured according to their indicated protocol. CHO cells stably expressing human (h)M2, hM3, and hM5 were described previously (Levey, et al., 1991); hM1 and hM4 cDNAs were purchased from Missouri S&T cDNA Resource; rM4 cDNA was provided by T. I. Bonner (National Institutes of Health, Bethesda, Md.). rM2 and rM3 were cloned from a rat brain cDNA library and sequence verified. hM1, rM2, rM3, hM4, and rM4 cDNAs were used to stably transfect CHO-K1 cells purchased from the American Type Culture Collection using Lipofectamine2000. To make stable rM2, hM2, rM3, hM4, and rM4 cell lines for use in calcium mobilization assays, these cells also were stably transfected with a chimeric G-protein (Gqi5) (provided by B. R. Conklin, University of California, San Francisco) using Lipofectamine 2000. rM1, hM1, rM3, hM3, rM5, and hM5 cells were grown in Ham's F-12 medium containing 10% heat-inactivated fetal bovine serum (FBS), 20 mM HEPES, and 50 μg/mL G418 sulfate. rM2-Gqi5, hM2-Gqi5, and hM4-Gqi5 cells were grown in the same medium also containing 500 μg/mL Hygromycin B. Stable rM4-Gqi5 cells were grown in DMEM containing 10% heat-inactivated FBS, 20 mM HEPES, 400 μg/mL G418 sulfate, and 500 μg/mL Hygromycin B.
For high throughput measurement of agonist-evoked increases in intracellular calcium, CHO-K1 cells stably expressing muscarinic receptors were plated in growth medium lacking G418 and hygromycin at 15,000 cells/20 μL/well in Greiner 384-well black-walled, tissue culture (TC)-treated, clear-bottom plates (VWR). Cells were incubated overnight at 37° C. and 5% CO2. The next day, cells were washed using an ELX 405 (BioTek) with four washes (80 μL) of assay buffer then aspirated to 20 μL. Next, 20 μL of 16 μM Fluo-4/acetoxymethyl ester (Invitrogen, Carlsbad, Calif.) prepared as a 2.3 mM stock in DMSO and mixed in a 1:1 ratio with 10% (w/v) Pluronic F-127 and diluted in assay buffer was added to the wells and the cell plates were incubated for 50 min at 37° C. and 5% CO2. Dye was removed by washing with the ELX 405 (four 80 μL washes of assay buffer) then aspirated to 20 μL. Compound master plates were formatted in an 11 point CRC format (1:3 dilutions) in 100% DMSO with a starting concentration of 10 mM using the BRAVO liquid handler (Agilent). Test compound CRCs were then transferred to daughter plates (240 nL) using the Echo acoustic plate reformatter (Labcyte, Sunnyvale, Calif.) and then diluted into assay buffer (40 μL) to a 2× stock using a Thermo Fisher Combi (Thermo Fisher Scientific, Waltham, Mass.).
Calcium flux was measured using the Functional Drug Screening System (FDSS) 6000 (Hamamatsu Corporation, Tokyo, Japan) as an increase in the fluorescent static ratio. Compounds were applied to cells (20 μL, 2×) using the automated system of the FDSS 6000 at 4 s into the 300 s protocol and the data were collected at 1 Hz. At 144 s into the 300s protocol, 10 μL of an EC20 concentration of the muscarinic receptor agonist acetylcholine was added (5×), followed by the addition of 12 μL an EC8O concentration of acetylcholine at the 230 s time point (5×). Agonist activity was analyzed as a concentration-dependent increase in calcium mobilization upon compound addition. Positive allosteric modulator activity was analyzed as a concentration-dependent increase in the EC20 acetylcholine response. Antagonist activity was analyzed as a concentration-dependent decrease in the EC80 acetylcholine response. Concentration-response curves were generated using a four-parameter logistical equation in XLfit curve fitting software (IDBS, Bridgewater, N.J.) for Excel (Microsoft, Redmond, Wash.) or Prism (GraphPad Software, Inc., San Diego, Calif.). […]

| M1 AChmax (%) | Structure (SMILES) |
| --- | --- |
| 26 | O=C1c2c(ccc3nccn23)CN1Cc1ccc(N2CCOCC2)nc1 [Compound 38] |
| 26 | O=C1c2c(ccc3nccn23)CN1Cc1ccc(-n2cccn2)cc1F [Compound 40] |

The next lines start with the compound.

| Structure (SMILES) | M1 AChmax (%) |
| --- | --- |
| O=C1c2c(ccc3nccn23)CN1Cc1ccc(-n2ccnn2)nc1 [Compound 37] | 26 |
| O=C1c2c(ccc3nccn23)CN1Cc1c(F)cc(-c2ccc3ncccc3c2)cc1F [Compound 39] | 28 |
| CNC(=O)c1ccc(CN2Cc3ccc4nccn4c3C2=O)cc1 [Compound 41] | 38 |
| O=C1c2c(ccc3nccn23)CN1Cc1ccc(-n2nccn2)cc1 [Compound 42] | 35 |

Same assay, conditions: positive allosteric modulator activity, concentration-dependent increase in EC20 acetylcholine response, CHO-K1 cells; >10 μM estimated where no plateau but >20% increase in ACh response

| EC50 [µM] | Structure (SMILES) |
| --- | --- |
| > 10 | O=C1c2c(ccc3nccn23)CN1Cc1ccc(N2CCOCC2)nc1 [Compound 38] |
| > 10 | O=C1c2c(ccc3nccn23)CN1Cc1ccc(-n2cccn2)cc1F [Compound 40] |

The next lines start with the compound.

| Structure (SMILES) | EC50 [µM] |
| --- | --- |
| O=C1c2c(ccc3nccn23)CN1Cc1ccc(-n2ccnn2)nc1 [Compound 37] | > 10 |
| O=C1c2c(ccc3nccn23)CN1Cc1ccc(-n2nccn2)cc1 [Compound 42] | > 10 |
